Data on 1 compound can be found in patent US20230201166A1, “METHODS FOR TREATING CANCER BY INHIBITING CARM1” (DANA-FARBER CANCER INSTITUTE, INC., priority 2020, published 2023).

Series [1] has as its system malignant melanoma cell lines. As to conditions: cited from earlier work.
Series [2] deals with CARM1 activity in tumor cells. The experiment in a line: CARM1 activity in tumor cells (me2BAF155 western blot). To be noted: sub-micromolar levels. It counts as cell-based, human. The protocol: BAF155 is a well-validated target of CARM1. […] Western blots were probed with Abs specific for di-methylated BAF155 protein (me2BAF155), total BAF155 protein and β-actin (loading control).
Whole cell extracts were prepared by lysis and sonication of cells in RIPA buffer [20 mM Tris-HCl (pH 7.5), 150 mM NaCl, 1 mM EDTA, 1 mM EGTA, 1% NP-40, 1% sodium deoxycholate, 2.5 mM sodium pyrophosphate, 1 mM β-glycerophosphate, 1 mM Na3VO4, 1 μg/ml leupeptin] supplemented with Halt Protease and Phosphatase Inhibitor Cocktail (ThermoFisher). Protein concentrations were determined using a Bradford Protein Assay (Bio-Rad). Protein samples (20 […]g) were resolved by SDS-PAGE using 4-12% NuPAGE Novex Bis-Tris mini gels (ThermoFisher) and transferred onto a PVDF membrane (Bio-Rad). Blots were blocked in 5% Blocker powder (Bio-Rad), 0.2% Tween in PBS and then incubated overnight with primary antibodies. Following incubation with secondary detection reagents and subsequent washing, blots were incubated in Western Lightening Plus-ECL substrate (PerkinElmer). Luminescence was captured using a ChemiDoc MP system (Bio-Rad Laboratories).
Background: In western blotting, separated proteins are transferred to a membrane and probed.

A short description of series [3]: Toxicity study in C57Bl/6 mice. To be noted: 150 mg/kg twice daily, oral gavage, 14 days, versus solvent control.
Protocol: Sex and age matched C57Bl/6 mice were randomized into two groups treated twice daily with either CARM1 inhibitor (150 mg/kg) or vehicle via oral gavage for 14 days. Major organs including heart, spleen, kidney, liver, lung and small intestine were harvested for pathological assessment. […] Scale bar=50 μM.
For another series, the system named is BT549 TNBC cells. The experiment in a line: T cell cytotoxicity assay, BT549 TNBC cells with NY-ESO-1 TCR human CD8 T cells. It counts as cell-based. As to conditions: pre-treatment 0.1 μM for 24 hours. The protocol:
FIG. 3L illustrates that inactivation of Carm1 gene in tumor cells elicits tumor immunity, showing T cell cytotoxicity assay with human BT549 TNBC and human CD8 T cells that expressed a NY-ESO-1 TCR. […] In FIGS. 3A-3L, two-way ANOVA was used to determine statistical significance for tumor measurements at time points when all mice were alive. Statistical significance for survival of mice in each treatment group were calculated by Log-rank (Mantel-Cox) test. Bar graphs represent data summarized as mean±S.E.M. and were analyzed by unpaired two-sided Mann-Whitney test. Data shown are representative of three experiments. *p<0.05, **p<0.01, ***p<0.001, ****p<0.0001, ns (non-significant).
T cell cytotoxicity assay using human tumor cells was performed using NY-ESO-1 transduced human CD8 T cells and BT549 human triple negative breast cancer cells which were HLA-A02*01 positive and endogenously expressed the NY-ESO-1 antigen. BT549 cells were co-cultured with human CD8 T cells that expressed a NY-ESO-1 TCR at increasing effector to target (E:T) ratios for 12-72 hours. Cytotoxicity was quantified by flow cytometry. All in vitro cytotoxicity assays were performed in human or murine T cell media (without addition of IL-2).

A further series deals with B16F10 cells. The experiment in a line: RT-qPCR of interferon stimulated genes in B16F10 cells. As to conditions: 0.1-1 μM, 7 days. It counts as cell-based, murine. As for the experimental part:
(§1) Total RNA was extracted using the RNeasy Mini Kit (Qiagen) according to the manufacturer's protocol. Extracted RNA (1 μg) was transcribed into cDNA using SuperScript IV VILO master mix with ezDNase enzyme according to the manufacturer's protocol (ThermoFisher). The cDNA samples were diluted and used for real-time quantitative PCR (RT-qPCR). Taqman master mix (ThermoFisher) and gene-specific primers were used for PCR amplification and detection using a QuantStudio 6 Flex Real-Time PCR System (ThermoFisher). The RT-qPCR data were normalized to GAPDH and HPRT (housekeeping genes) and presented as fold change of gene expression in the test sample compared to the control sample.
In general terms: Real-time PCR tracks product formation cycle by cycle.

For series [4], the system named is SKBR3, MDA-MB-157 and MDA-MB-436 cells. The experiment in a line: RT-qPCR of ISGs in human tumor cells. It is filed as cell-based. As to conditions: 2 μM, 7 days. As for the experimental part:
RT-qPCR analysis of selected ISGs and IFNs in human SKBR3, MDA-MB-157 and MDA-MB-436 cells treated with vehicle or CARM1 inhibitor (2 μM) for 7 days (n=3/group).
as §1

The subject of series [5] is B16F10-OVA-ZsGreen tumor cells. The experiment in a line: T cell cytotoxicity assay, B16F10-OVA-ZsGreen tumor cells with OT-I CD8 T cells. It counts as cell-based, murine. To be noted: pre-treatment 0.1 μM for 24 hours. The text has this:
FIG. 3K illustrates that inactivation of Carm1 gene in tumor cells elicits tumor immunity, showing sensitization of tumor cells to T cells with a CARM1 inhibitor. […] Vehicle or inhibitor treated tumor cells were co-cultured with OT-I CD8 T cells at indicated E:T ratios (n=7-8 replicates/condition).
A Celigo image cytometer (Nexcelom) was used to study the killing of fluorescent tumor cells by CD8 T cells. Carm1-KO or control-KO B16-OVA-ZsGreen cells were washed with PBS, and 5,000 tumor cells were added per well in flat-bottom 96-well plates (8-10 replicates/group). OT-I CD8 T cells were added at different effector to target ratios. Following 24 or 48 hours of co-culture, the media was removed, and wells were washed with PBS to remove dead tumor cells and CD8 T cells. Live, adherent tumor cells were then counted using the Celigo image cytometer. As an alternative approach, apoptotic tumor cells were counted based on Caspase 3/7 activation. A Caspase-3/7 reagent (Essen Bioscience) was added directly to the culture media (0.5 μM final concentration) after 12, 24 or 48 hours of co-culture of tumor cells with T cells, and positive tumor cells were counted using the image cytometer.

The next series deals with B16F10 tumor cells. The experiment in a line: dsDNA damage, γH2AX immunofluorescence. It is filed as cell-based, murine. As to conditions: B16F10 melanoma cells. As for the experimental part: Representative immunofluorescence images (left) of γH2AX antibody labeling (purple); nuclei labeled with DAPI. Quantification of number of γH2AX foci/nucleus (right). Data are shown as mean±SEM, ***p<0.001, by unpaired two-sided Mann-Whitney test. Scale bar—[…].
Cells were grown on glass coverslips, washed with PBS and fixed in 4% paraformaldehyde in PBS for 20 min at room temperature. Cells were permeabilized in 0.2% Triton X-100 for 15 min before blocking for 30 min with 10% serum-containing blocker (ThermoFisher). Coverslips were then incubated with primary antibody overnight […] in a humidified chamber, followed by incubation with a secondary antibody for 1 hour. Primary and secondary antibodies were diluted in blocking buffer, and […]. Coverslips were mounted using Prolong Gold Antifade Mounting Medium with DAPI (ThermoFisher). Imaging was performed using a Hamamatsu ORCA-Flash4.0 V3 Digital CMOS camera and Nikon Ti-E Motorized Microscope 2000U microscope with Plan Apo Lamda 60×/1.40 Oil Ph3 DM objectives. Images were captured with Nikon Elements Acquisition Software. All scoring was performed under blinded conditions. Three independent experiments with three biological replicates per group were performed.

A further series concerns B16F10 tumors. The experiment in a line: B16F10 melanoma tumor model.
[6] abbreviates: 150 mg/kg b.i.d. orally days 7-21, in combination with CTLA-4 mAb.

Structures are written as SMILES. Entries after “also recorded” stand apart in the source; their conditions may differ.

Protocol for B16F10 tumors: B16F10 or MC38 tumor cells (2×10^5) were injected subcutaneously in 50 μL of PBS into syngeneic C57BL/6J mice. […] Mice receiving an isotype control mAb (Bio X Cell, clone HRPN #BE0088) at the same dose in PBS were used as controls.
For checkpoint blockade experiments, tumor-bearing mice were administered with anti-CTLA4 mAb (clone 9H10, #BP0131, 100 μg/injection) or corresponding isotype control Ab (polyclonal Syrian hamster IgG, 100 μg/mouse). Alternatively, mice received anti-PD1 (clone 29F.1A12, #BE0273, 200 m/injection) or rat IgG2a isotype control Ab, anti-trinitrophenol (Clone: 2A3, 200 μg/injection) starting on day 7 post tumor inoculation and then every 3rd day.

In the case of `CNC[C@@H](O)COc1ccc(Cl)c(-c2nc(-c3c(C)noc3C)c(C)c(N3CC4(CCN(C(=O)OC)CC4)C3)n2)c1` (stereo in doubt) [EZM2302], in [1], the “cell stasis, IC50” value is listed as “nanomolar range”; the “inhibition of PABP1 and SMB methylation, IC50” value is “nanomolar range”. Also, the “suppression of CARM1 activity in tumor cells” value in series [2] is recorded as “suppress CARM1 activity”. Further, in series [3], the “histological changes in major organs” value is on record as “no histological changes” and the weight loss entry is recorded as “no histological changes was observed in a comprehensive analysis of major organs or weight loss”. In the series with BT549 TNBC cells, the “CD8 T cell-mediated cytotoxicity” value was “enhanced CD8 T cell-mediated cytotoxicity”. The “interferon stimulated gene (ISG) expression / mRNA levels” value in the series on B16F10 cells is reported as “induced up regulation of the ISGs expression; also recorded: significantly increased the mRNA levels of these ISGs”. The “expression of ISGs in human breast and melanoma cancer cell lines” value in [4] is “induced the expression of a similar set of ISGs”. In addition, the “sensitization of tumor cells to CD8 T cells” value in series [5] is “sensitized them to CD8 T cells”. For the same compound, the γH2AX foci entry in the series with B16F10 tumor cells is on record as “induced γH2AX foci accumulation”. In the series with B16F10 tumors (setting [6]), the “sensitization of tumors to checkpoint blockade” value is on record as “sensitized B16F10 melanomas to checkpoint blockade with a CTLA-4 mAb” and the survival entry is given as “significant survival benefit”. Also, the B16F10 tumor growth result in the series on B16F10 tumors (oral, 150 mg/kg/day, B16F10 tumor bearing mice) was “significantly suppresses B16F10 tumor growth”.
